Publication PMC8279416, “Structural Fine-Tuning of Desmuramylpeptide NOD2 Agonists Defines Their In Vivo Adjuvant Activity” (Journal of Medicinal Chemistry, 2021)
“And” between values parts separate entries of the source, which are not always exact repeats. Equal entries are not always repeated.

Tests used:
NOD2 = target: T1, NOD2 (Homo sapiens, UniProt Q9HC29); experiment: HEK-Blue NOD2 cell line reporter assay (NF-κB-inducible SEAP); type: cell-based; details: HEK-Blue NOD2 cells, 18 h, mean ± SEM; for NOD2 activity at 2 μM (fold increase): NF-κB transcriptional (SEAP) activity relative to 0.1% DMSO; for EC50: 7 or 8 concentrations 1 nM to 20 μM
T1 construct: host or cells: HEK-Blue NOD2 cells (HEK293-derived)
Procedure: To determine the NOD2 agonistic potential of the synthesized desmuramylpeptides at the cellular level, we used the validated and commercially available HEK-Blue NOD2 cell line reporter assay. HEK-Blue NOD2 cells were first treated for 18 h with MDP, 1, or the novel desmuramylpeptides at 2 μM. The NF-κB transcriptional activity measured was normalized to that of the vehicle treated (0.1% DMSO) control HEK-Blue NOD2 cells.
HEK-Blue NOD2 and NOD1 cell line reporter assays are derived from HEK293 cells by cotransfection of the hNOD2 or hNOD1 genes, respectively, and an NF-κB-inducible secreted embryonic alkaline phosphatase (SEAP) reporter gene. Following activation of NOD2 or NOD1, the resulting NF-κB induces production of SEAP, the levels of which can be quantified colorimetrically. […] After 18 h of incubation (37 °C, 5% CO2), secreted embryonic alkaline phosphatase (SEAP) activity was determined spectrophotometrically as absorbance at 630 nm (BioTek Synergy microplate reader; Winooski, VT, U.S.A.). EC50 values were calculated using Prism software (version 9; GraphPad Software, CA, U.S.A.). For determination of specificity, HEK-Blue NOD2 cells (2.5 × 10^5 cells/mL) were first pretreated for 1 h with a 10 μM NOD2 antagonist, before the addition of the compounds (2 μM), with incubation for 18 h. SEAP activity in the supernatants was determined as above. The experiments were run in duplicate and repeated as at least two independent biological replicates.

human PBMCs = experiment: Cytokine release from peripheral blood mononuclear cells (cytometric bead array); type: cell-based; details: 2 μM, 18 h, without LPS
Procedure: The immunostimulatory effects of the selected desmuramylpeptides were evaluated using human primary peripheral blood mononuclear cells (PBMCs). This heterogeneous mixture of immune cells allowed the study of the effects of these NOD2 agonists in a physiologically relevant system, where other NOD2-interacting and downstream signaling proteins were present. The effects of desmuramylpeptides were first determined for the secreted cytokine profile using a cytometric bead array cytokine kit. Moreover, considering that activation of NOD2 is also an important amplification signal for Toll-like receptor (TLR)-induced inflammatory responses,[79]−[81] we also examined the effects on cytokine secretion of the combination of desmuramylpeptides with LPS, a well-known TLR4 agonist.
In line with previous studies, the effects of MDP and the desmuramylpeptides were most pronounced for the induction of the chemokine IL-8.[82]
Peripheral blood mononuclear cells were seeded (1 × 10^6 cells/mL) in 48-well plates in 500 μL of growth medium and treated with the compounds (2 μM) or with the corresponding vehicle (0.1% DMSO) in the absence and presence of LPS (10 ng/mL). Cell-free supernatants were collected after 18 h of incubation (37 °C, 5% CO2) and stored at −80 °C until tested. Cytokine production was determined with the BD Cytometric Bead Array Human Inflammatory Cytokines Kit (contents: IL-8, IL-1β, IL-6, IL-10, TNF, IL-12p70; BD Bioscience) on an Attune NxT flow cytometer (Thermo Fisher Scientific, Waltham, MA, U.S.A.). Standard curves were generated using recombinant cytokines contained in the kit. The data were analyzed using the FlowJo (Tree Star, Inc., Ashland, OR, U.S.A.) and Prism (GraphPad, San Diego, CA, U.S.A.) software. The experiments were repeated as four independent biological replicates. Statistical significance was determined by repeated measures one-way ANOVA followed with Dunnett’s multiple comparisons test.

NIH/OlaHsd mice [1] = experiment: In vivo ovalbumin-specific antibody response, first experiment (neutral liposomes); design: species or system mouse; details: for Log10 (anti-OVA IgG1/anti-OVA IgG2a): first in vivo experiment, one week after the booster dose, mean ± SEM of 5 mice; for Ovalbumin-specific IgG2a response (in words) / Ovalbumin-specific IgG1 response (in words) / Adjuvant activity: ovalbumin-specific IgG (in words): neutral liposomes, 0.30 μmol adjuvant per dose, 1 week after booster; for Adjuvant activity: ovalbumin-specific IgG (in words): s.c.
Procedure: To determine whether enhanced antigen presentation in vitro is correlated to in vivo adjuvant activities, an immunization study was performed in a murine model of adjuvanticity. Specifically, the selected desmuramylpeptides were investigated for induction of systemic immune responses against the model antigen ovalbumin. Seven groups of NIH/OlaHsd mice were immunized with ovalbumin-containing neutral liposomes, either alone or with additional adjuvants of MDP or the desmuramylpeptides 1, 68, 74, 75, or 81. After immunization and one booster dose, the mice sera were collected and assayed for ovalbumin-specific IgG antibodies (Figure 10).
(§1) Multilamellar liposomes were prepared by the modified thin lipid film method as described previously.[130],[131] For the preparation of neutral liposomes, a 7:5 molar ratio of egg-phosphatidylcholine and cholesterol was used. For the preparation of negatively charged liposomes, a 7:5:1 molar ratio of egg-phosphatidylcholine, cholesterol, and dicetylphosphate was used, while a 7:5:0.5 molar ratio of egg-phosphatidylcholine, cholesterol, and Man-PEG-Pam was used in the preparation of mannosylated liposomes. Lipids (total lipid concentration, 4 mg/mL) were dissolved in chloroform/methanol (2:1). A methanol or chloroform/methanol solution of MDP or the desmuramylpeptides was added to the lipid solution for a final concentration of 2 mM and 1.5 mM for the first (Figure 10) and second (Figure 11) experiments, respectively. After rotary evaporation of the solvent, the remaining lipid film was dried in vacuum for 1 h and then dispersed by gentle handshaking in an ovalbumin solution in saline (0.0667 and 0.1 mg/mL for the first and second experiments, respectively). This was then left overnight at 4 °C to swell and stabilize. Liposome size was reduced by sonification. Nonentrapped material was not separated from liposomes, and the complete liposome suspension was used for immunizations.
(§2) For the first experiment (Figure 10), sex-matched NIH/OlaHsd mice (five per group) were immunized subcutaneously in the tail base and boosted one time after 21 days. The injection volume in all experimental groups was 0.15 mL per mouse, which corresponds to 10 μg of OVA, […], and 0.30 μmol of MDP and desmuramylpeptides. For the second experiment (Figure 11), sex-matched NIH/OlaHsd mice (five per group) were immunized and boosted two times subcutaneously into the tail base at 21-day intervals. The injection volume in all experimental groups was 0.1 mL per mouse, which corresponds to 10 μg of OVA, 400 μg of lipids, and 0.15 μmol of MDP and 75. The mice were anesthetized with ip application of ketamine/xylazine (25 mg/kg each) prior to blood collection from the axillary plexus on the seventh day after the last booster dose. Individual serum from each animal was decomplemented at 56 °C for 30 min and then stored at −20 °C until tested.
(§3) ELISA assays were performed as detailed previously.[46] Briefly, high-binding ELISA plates (Costar, U.S.A.) were coated with a 15 μg/mL solution of ovalbumin in carbonate buffer, pH 9.6, and incubated overnight at room temperature. Nonspecific antibody binding was blocked with 0.5% w/v bovine serum albumin in PBS-T (0.05% (v/v) Tween 20 in phosphate-buffered saline) for 2 h at 37 °C. After washing, five serial dilutions of mice sera and standard preparations were added in duplicate. Plates were incubated overnight at room temperature, washed, and analyzed for ovalbumin-specific IgG levels by incubation with HRP-conjugated goat anti-mouse IgG (2 h at 37 °C) and then, after washing, with 0.6 mg/mL o-phenylenediaminedihydrochloride solution in citrate-phosphate buffer, pH 5.0, with 0.5 μL of 30% H2O2 per milliliter for 30 min at room temperature in the dark. The enzymatic reaction was stopped with 12.5% H2SO4, and absorbance at 492 nm was measured using a microplate reader (Thermo Fisher Scientific, Waltham, MA, U.S.A.). […]

[2] = design: method as in PMID 29543461; details: earlier work of the group; cited from earlier work
NIH/OlaHsd mice [3] = experiment: In vivo ovalbumin-specific antibody response, second experiment (neutral, anionic, mannosylated liposomes); design: species or system mouse; details: for Ovalbumin-specific IgG response (in words): 0.15 μmol adjuvant per dose; for Log10 (anti-OVA IgG1/anti-OVA IgG2a): second in vivo experiment, 0.15 μmol adjuvant, one week after second booster, mean ± SEM of 5 mice
Procedure: To determine whether the adjuvanticity of 75 can be modulated through changes to the liposomal formulation, a second in vivo experiment was designed in which the adjuvant activities of three different liposomal compositions were compared. Neutral liposomes were prepared from egg phosphatidylcholine and cholesterol.
as §1, §2
as §3, with “U.S.A.). For the determination of ovalbumin-specific IgG1 and IgG2a, the plates were incubated with biotin-conjugated rat anti-mouse IgG1 or IgG2a (2 h at 37 °C) and subsequently with streptavidin–peroxidase for another 2 h at 37 °C. After washing, the substrate solution was added and incubated for 30 min at room temperature in the dark, as described above.” for “U.S.A.).”

T1 sequence (Q9HC29 whole entry): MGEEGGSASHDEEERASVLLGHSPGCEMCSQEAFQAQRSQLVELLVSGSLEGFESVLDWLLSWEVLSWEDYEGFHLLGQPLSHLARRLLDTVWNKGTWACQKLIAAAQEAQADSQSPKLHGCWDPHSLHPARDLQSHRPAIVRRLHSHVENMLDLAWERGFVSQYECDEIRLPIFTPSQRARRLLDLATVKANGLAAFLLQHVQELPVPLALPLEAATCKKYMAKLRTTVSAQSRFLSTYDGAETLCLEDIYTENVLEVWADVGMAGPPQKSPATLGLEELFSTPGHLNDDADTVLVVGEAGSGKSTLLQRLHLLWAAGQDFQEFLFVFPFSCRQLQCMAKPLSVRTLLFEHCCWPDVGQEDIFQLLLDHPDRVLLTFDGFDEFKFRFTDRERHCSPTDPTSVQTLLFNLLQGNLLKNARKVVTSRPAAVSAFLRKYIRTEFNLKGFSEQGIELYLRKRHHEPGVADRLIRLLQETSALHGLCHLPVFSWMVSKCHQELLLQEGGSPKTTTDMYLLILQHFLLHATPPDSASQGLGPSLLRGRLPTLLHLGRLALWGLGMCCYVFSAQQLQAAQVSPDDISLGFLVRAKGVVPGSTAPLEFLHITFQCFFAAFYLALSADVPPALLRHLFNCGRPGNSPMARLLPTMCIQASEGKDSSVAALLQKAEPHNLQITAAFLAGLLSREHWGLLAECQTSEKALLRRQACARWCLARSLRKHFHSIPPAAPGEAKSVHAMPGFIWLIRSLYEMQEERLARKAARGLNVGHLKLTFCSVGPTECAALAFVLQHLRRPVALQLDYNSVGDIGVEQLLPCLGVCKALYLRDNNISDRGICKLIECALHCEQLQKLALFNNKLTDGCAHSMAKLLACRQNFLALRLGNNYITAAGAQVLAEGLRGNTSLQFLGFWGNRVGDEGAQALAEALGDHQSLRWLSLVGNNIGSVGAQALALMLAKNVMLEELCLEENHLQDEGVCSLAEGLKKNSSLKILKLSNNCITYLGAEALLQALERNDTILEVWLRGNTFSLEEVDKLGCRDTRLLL

SMILES	NOD2 activity at 2 μM (fold increase) (NOD2)	EC50 (NOD2) [nM]	Induction of cytokines IL-1β, IL-6, IL-8 and TNF-α, compound alone (human PBMCs)	Log10 (anti-OVA IgG1/anti-OVA IgG2a) (NIH/OlaHsd mice [1])	Ovalbumin-specific IgG2a response (in words) (NIH/OlaHsd mice [1])	Ovalbumin-specific IgG1 response (in words) (NIH/OlaHsd mice [1])	Adjuvant activity: ovalbumin-specific IgG (in words) (NIH/OlaHsd mice [1])	Pyrogenicity [2]	Ovalbumin-specific IgG2a response (in words) (NIH/OlaHsd mice [3]; all liposomal compositions, compared to liposomes without adjuvant)	Ovalbumin-specific IgG response (in words) (NIH/OlaHsd mice [3]; mannosylated liposomes)	Ovalbumin-specific IgG response (in words) (NIH/OlaHsd mice [3]; negatively charged liposomes)	Ovalbumin-specific IgG response (in words) (NIH/OlaHsd mice [3]; neutral liposomes)	Log10 (anti-OVA IgG1/anti-OVA IgG2a) (NIH/OlaHsd mice [3]; anionic liposomes)	Log10 (anti-OVA IgG1/anti-OVA IgG2a) (NIH/OlaHsd mice [3]; mannosylated liposomes)	Log10 (anti-OVA IgG1/anti-OVA IgG2a) (NIH/OlaHsd mice [3]; neutral liposomes)
CCCCCCCCCCCC(=O)Oc1ccc(/C=C/C(=O)NCC(=O)N[C@H](C(=O)N[C@H](CCC(=O)OCC)C(=O)OCC)C(C)C)cc1OC [Compound 74, Diethyl ((E)-3-(4-(Dodecanoyloxy)-3-methoxyphenyl)acryloyl)glycyl-L-valyl-D-glutamate]	3.17 ± 0.03 fold increase	30 ± 5	induced small increases in the levels of all four of these cytokines	2.90 ± 0.39	slight suppression of the IgG2a response										
CCOC(=O)CC[C@@H](NC(=O)[C@@H](NC(=O)CNC(=O)/C=C/c1ccc(O)c(OC)c1)C(C)C)C(=O)OCC [Compound 1]				1.68 ± 0.06		largely IgG1-based response	only marginal adjuvant activity	devoid of pyrogenicity							
CC(=O)N[C@H]1C(O)O[C@H](CO)[C@@H](O)[C@@H]1O[C@H](C)C(=O)N[C@@H](C)C(=O)N[C@H](CCC(=O)O)C(N)=O (stereo partly shown) [MDP, muramyl dipeptide, reference compound]	2.83 fold increase and 2.83 ± 0.16 fold increase	148 ± 26		2.43 ± 0.25	only marginal increases in IgG2a	significant increases in IgG1 generation	moderately enhanced		remained unchanged	strongest immunogenicity	stronger IgG response	weakest adjuvant activities	2.85 ± 0.10	2.48 ± 0.19	3.02 ± 0.17
CCOC(=O)CC[C@@H](NC(=O)[C@@H](NC(=O)CNC(=O)/C=C/c1ccc(OC(C)=O)c(OC)c1)C(C)C)C(=O)OCC [Compound 73, Diethyl ((E)-3-(4-Acetoxy-3-methoxyphenyl)acryloyl)glycyl-L-valyl-D-glutamate]	3.05 ± 0.03 fold increase	62 ± 27	induced small increases in the levels of all four of these cytokines												
